Assay type in all cases: cell-based
What all share (conditions): compounds at 50 nM and 500 nM

Test [1] addresses T1, GSPT1 (Homo sapiens, UniProt P15170+Q96SW2).
T1 construct: The supernatant was aspirated as the extracted total cell protein; endogenous in cells; host or cells: human peripheral blood mononuclear cells (hPBMCs)
Description: Western blot degradation of GSPT1 in hPBMCs (24 h). The method in brief:
(§1)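 Western blot densitometry after 24 h treatment of human PBMCs (1×10^6 cells/mL) with 50 nM or 500 nM compound. Remaining target (%) = band intensity over internal-control band, normalized to DMSO; degradation = 1 − remaining; DC50 is the concentration giving half the DMSO band signal.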

Test [2] has as its target T2, CK1α (Homo sapiens, UniProt P48729+Q96SW2).
T2 construct: The supernatant was aspirated as the extracted total cell protein; endogenous in cells; host or cells: human peripheral blood mononuclear cells (hPBMCs)
Description: Western blot degradation of CK1α in hPBMCs (24 h). The gist of the method:
as §1
(In western blotting, separated proteins are transferred to a membrane and probed.)

Test [3] addresses T3, WEE1 (Homo sapiens, UniProt P30291+Q96SW2).
T3 construct: The supernatant was aspirated as the extracted total cell protein; endogenous in cells; host or cells: human peripheral blood mononuclear cells (hPBMCs)
Description: Western blot degradation of WEE1 in hPBMCs (24 h). The method in brief: as §1

For test [4], the target named is T4, IKZF2 (Homo sapiens, UniProt Q96SW2+Q9UKS7).
T4 construct: The supernatant was aspirated as the extracted total cell protein; endogenous in cells; host or cells: human peripheral blood mononuclear cells (hPBMCs)
Description: Western blot degradation of IKZF2 in hPBMCs (24 h). The method in brief:
as §1

Test [5] concerns the target T5, IKZF3 (Homo sapiens, UniProt Q96SW2+Q9UKT9).
T5 construct: The supernatant was aspirated as the extracted total cell protein; endogenous in cells; host or cells: human peripheral blood mononuclear cells (hPBMCs)
Description: Western blot degradation of IKZF3 in hPBMCs (24 h). The gist of the method:
as §1

Test [6] has as its target T6, IKZF1 (Homo sapiens, UniProt Q13422+Q96SW2).
T6 construct: The supernatant was aspirated as the extracted total cell protein; endogenous in cells; host or cells: human peripheral blood mononuclear cells (hPBMCs)
Description: Western blot degradation of IKZF1 in hPBMCs (24 h). The method in brief: as §1

Data on eleven compounds can be found in patent US20260356819A1, “OXOISOINDOLINYL-SUBSTITUTED […] DERIVATIVE AND USE THEREOF” (GLUETACS THERAPEUTICS (SHANGHAI) CO., LTD., priority 2023, published 2026).

T5 sequence (Q9UKT9 whole entry): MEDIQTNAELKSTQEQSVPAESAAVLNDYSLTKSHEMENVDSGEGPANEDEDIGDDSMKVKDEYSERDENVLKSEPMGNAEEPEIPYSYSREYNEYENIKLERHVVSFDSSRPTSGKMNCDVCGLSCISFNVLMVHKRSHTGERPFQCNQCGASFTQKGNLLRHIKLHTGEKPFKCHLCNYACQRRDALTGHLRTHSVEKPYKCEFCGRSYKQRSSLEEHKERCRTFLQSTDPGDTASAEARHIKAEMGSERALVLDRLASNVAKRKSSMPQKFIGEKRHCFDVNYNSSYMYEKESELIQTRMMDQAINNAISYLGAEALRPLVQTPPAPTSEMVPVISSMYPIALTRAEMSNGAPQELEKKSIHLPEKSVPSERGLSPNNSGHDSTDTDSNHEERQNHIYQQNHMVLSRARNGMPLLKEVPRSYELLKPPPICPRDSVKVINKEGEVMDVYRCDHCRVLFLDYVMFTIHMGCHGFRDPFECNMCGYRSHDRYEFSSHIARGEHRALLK
T5 sequence (Q96SW2 whole entry): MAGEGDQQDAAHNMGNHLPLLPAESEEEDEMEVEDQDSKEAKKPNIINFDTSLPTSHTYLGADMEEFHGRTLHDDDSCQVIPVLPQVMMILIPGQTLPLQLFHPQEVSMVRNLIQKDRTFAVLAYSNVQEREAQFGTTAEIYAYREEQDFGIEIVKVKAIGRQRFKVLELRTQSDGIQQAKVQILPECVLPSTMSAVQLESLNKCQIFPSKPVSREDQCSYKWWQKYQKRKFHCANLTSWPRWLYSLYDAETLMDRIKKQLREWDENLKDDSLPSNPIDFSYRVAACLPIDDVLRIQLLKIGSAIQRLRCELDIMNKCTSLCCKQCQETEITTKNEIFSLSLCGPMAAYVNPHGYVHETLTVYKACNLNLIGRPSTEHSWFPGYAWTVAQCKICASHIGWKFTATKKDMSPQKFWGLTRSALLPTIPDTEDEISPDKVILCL
T5 sequence (Q16531 whole entry partner): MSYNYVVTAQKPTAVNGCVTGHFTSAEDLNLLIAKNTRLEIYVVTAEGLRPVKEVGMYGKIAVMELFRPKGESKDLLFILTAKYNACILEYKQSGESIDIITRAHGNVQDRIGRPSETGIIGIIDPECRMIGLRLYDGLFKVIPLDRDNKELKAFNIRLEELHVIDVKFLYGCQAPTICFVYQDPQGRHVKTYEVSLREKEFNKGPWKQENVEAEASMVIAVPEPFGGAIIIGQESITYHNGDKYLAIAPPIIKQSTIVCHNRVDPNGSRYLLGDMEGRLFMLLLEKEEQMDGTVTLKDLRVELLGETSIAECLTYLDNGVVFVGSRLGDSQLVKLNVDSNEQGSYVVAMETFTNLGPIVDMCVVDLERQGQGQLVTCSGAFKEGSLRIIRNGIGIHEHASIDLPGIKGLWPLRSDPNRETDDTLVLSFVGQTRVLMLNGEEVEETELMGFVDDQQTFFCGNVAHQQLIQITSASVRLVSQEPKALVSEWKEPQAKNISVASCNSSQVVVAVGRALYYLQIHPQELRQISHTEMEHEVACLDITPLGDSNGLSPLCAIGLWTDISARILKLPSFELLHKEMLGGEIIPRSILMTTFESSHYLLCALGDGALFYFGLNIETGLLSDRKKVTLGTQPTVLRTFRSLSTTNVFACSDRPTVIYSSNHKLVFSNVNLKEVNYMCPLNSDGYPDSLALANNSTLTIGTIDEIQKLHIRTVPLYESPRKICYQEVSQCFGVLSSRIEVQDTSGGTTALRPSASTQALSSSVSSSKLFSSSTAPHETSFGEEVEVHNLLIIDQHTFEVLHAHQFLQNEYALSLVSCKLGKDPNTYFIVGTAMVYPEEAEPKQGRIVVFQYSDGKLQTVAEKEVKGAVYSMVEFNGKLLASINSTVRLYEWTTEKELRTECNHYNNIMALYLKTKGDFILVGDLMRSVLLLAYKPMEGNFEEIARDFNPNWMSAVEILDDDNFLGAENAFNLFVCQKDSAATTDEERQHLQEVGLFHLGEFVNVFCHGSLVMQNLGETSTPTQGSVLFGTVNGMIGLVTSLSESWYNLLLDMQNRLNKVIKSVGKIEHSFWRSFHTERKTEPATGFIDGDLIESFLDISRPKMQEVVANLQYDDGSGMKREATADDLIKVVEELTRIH
T4 sequence (Q9UKS7 whole entry): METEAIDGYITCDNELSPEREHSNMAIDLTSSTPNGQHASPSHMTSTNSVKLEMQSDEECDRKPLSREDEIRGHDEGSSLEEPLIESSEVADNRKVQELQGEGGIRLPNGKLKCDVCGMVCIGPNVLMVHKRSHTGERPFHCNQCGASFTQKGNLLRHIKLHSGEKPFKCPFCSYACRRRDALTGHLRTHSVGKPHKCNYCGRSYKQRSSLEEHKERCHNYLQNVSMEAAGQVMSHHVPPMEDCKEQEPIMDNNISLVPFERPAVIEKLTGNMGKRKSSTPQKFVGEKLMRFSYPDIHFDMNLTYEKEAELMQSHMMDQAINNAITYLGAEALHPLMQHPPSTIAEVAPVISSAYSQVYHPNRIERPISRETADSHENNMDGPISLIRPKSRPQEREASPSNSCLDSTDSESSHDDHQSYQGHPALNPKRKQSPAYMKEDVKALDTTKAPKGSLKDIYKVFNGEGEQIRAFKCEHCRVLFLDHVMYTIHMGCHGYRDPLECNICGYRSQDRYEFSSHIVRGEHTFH
T4 sequence (Q96SW2 whole entry): as the sequence (Q96SW2 whole entry) above
T4 sequence (Q16531 whole entry partner): as the sequence (Q16531 whole entry partner) above
T1 sequence (P15170 whole entry): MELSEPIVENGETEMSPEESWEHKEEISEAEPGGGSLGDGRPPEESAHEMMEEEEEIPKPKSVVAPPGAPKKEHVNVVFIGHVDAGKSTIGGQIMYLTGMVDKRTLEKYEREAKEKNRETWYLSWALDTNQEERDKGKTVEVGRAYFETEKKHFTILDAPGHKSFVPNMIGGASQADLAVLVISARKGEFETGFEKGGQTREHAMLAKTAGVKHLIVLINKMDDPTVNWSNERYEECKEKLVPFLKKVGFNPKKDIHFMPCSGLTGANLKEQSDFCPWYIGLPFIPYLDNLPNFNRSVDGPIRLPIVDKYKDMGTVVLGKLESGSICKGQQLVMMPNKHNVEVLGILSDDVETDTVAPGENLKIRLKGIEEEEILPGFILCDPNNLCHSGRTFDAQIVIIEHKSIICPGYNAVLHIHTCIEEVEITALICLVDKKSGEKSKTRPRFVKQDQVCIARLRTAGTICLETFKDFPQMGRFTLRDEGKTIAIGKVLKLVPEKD
T1 sequence (Q96SW2 whole entry): as the sequence (Q96SW2 whole entry) above
T1 sequence (Q16531 whole entry partner): as the sequence (Q16531 whole entry partner) above
T3 sequence (P30291 whole entry): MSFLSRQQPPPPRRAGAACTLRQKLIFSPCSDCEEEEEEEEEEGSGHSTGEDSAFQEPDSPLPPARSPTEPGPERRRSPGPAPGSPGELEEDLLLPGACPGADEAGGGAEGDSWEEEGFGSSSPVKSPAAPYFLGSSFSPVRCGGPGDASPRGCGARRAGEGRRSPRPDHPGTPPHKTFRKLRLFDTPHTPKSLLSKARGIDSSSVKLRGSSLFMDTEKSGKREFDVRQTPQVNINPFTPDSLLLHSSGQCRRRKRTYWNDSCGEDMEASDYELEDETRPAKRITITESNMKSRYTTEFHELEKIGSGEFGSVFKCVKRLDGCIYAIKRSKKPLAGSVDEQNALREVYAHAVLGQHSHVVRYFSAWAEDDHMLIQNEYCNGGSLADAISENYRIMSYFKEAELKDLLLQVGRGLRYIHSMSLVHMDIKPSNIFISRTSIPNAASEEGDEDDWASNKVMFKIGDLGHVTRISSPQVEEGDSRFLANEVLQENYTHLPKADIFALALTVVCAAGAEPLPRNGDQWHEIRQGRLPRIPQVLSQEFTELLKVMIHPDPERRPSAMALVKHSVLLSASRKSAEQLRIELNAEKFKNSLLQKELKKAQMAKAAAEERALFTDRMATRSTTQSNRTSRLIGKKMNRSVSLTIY
T3 sequence (Q96SW2 whole entry): as the sequence (Q96SW2 whole entry) above
T3 sequence (Q16531 whole entry partner): as the sequence (Q16531 whole entry partner) above
T6 sequence (Q13422 whole entry): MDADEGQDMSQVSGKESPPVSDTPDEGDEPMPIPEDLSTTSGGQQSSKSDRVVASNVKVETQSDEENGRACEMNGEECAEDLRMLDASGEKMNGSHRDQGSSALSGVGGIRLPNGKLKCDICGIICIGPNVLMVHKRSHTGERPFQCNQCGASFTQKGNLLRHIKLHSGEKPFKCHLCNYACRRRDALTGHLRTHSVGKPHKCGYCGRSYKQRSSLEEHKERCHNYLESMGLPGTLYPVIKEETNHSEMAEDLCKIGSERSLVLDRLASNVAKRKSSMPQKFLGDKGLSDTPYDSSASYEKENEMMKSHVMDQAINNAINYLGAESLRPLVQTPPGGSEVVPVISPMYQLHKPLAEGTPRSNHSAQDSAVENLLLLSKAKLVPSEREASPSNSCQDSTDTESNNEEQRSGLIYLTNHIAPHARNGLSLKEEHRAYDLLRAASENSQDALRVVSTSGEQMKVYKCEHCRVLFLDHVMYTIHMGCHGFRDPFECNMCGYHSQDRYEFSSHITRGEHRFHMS
T6 sequence (Q96SW2 whole entry): as the sequence (Q96SW2 whole entry) above
T6 sequence (Q16531 whole entry partner): as the sequence (Q16531 whole entry partner) above

For the compound `O=C1CCN(N2C(=O)c3ccc(CN4CC=C(c5c[nH]c6ncccc56)CC4)cc3C2=O)C(=O)N1` [GT-05181, 5-((4-(1H-pyrrolo[2,3-b]pyridin-3-yl)-3,6-dihydropyridin-1(2H)-yl)methyl)-2-(2,4-dioxotetrahydropyrimidin-1(2H)-yl)isoindoline-1,3-dione], the “GSPT1 substrate protein remaining %” value in test [1] is reported as “B (80%< substrate protein remaining % ≤100%)”. The “CK1α substrate protein remaining %” value in test [2] is listed as “B (80%< substrate protein remaining % ≤100%)”. Further, the “WEE1 substrate protein remaining %” value in test [3] is recorded as “A (0% ≤ substrate protein remaining % ≤80%)”. The “IKZF2 substrate protein remaining %” value in test [4] is reported as “B (80%< substrate protein remaining % ≤100%)”. In addition, the “IKZF3 substrate protein remaining %” value in test [5] is “B (80%< substrate protein remaining % ≤100%)”. Also, the “IKZF1 substrate protein remaining %” value in test [6] is “B (80%< substrate protein remaining % ≤100%)”.
As for `O=C1CCN(N2C(=O)c3ccc(CN4CC=C(c5cccc(Cl)c5Cl)CC4)cc3C2=O)C(=O)N1` [GT-05249, 5-((4-(2,3-dichlorophenyl)-3,6-dihydropyridin-1(2H)-yl)methyl)-2-(2,4-dioxotetrahydropyrimidin-1(2H)-yl)isoindoline-1,3-dione], in test [1], the “GSPT1 substrate protein remaining %” value is “A (0% ≤ substrate protein remaining % ≤80%)”. Also, in test [2], the “CK1α substrate protein remaining %” value is “B (80%< substrate protein remaining % ≤100%)”. For the same compound, the “WEE1 substrate protein remaining %” value in test [3] is “B (80%< substrate protein remaining % ≤100%)”. Further, the “IKZF2 substrate protein remaining %” value in test [4] was “B (80%< substrate protein remaining % ≤100%)”. Besides, the “IKZF3 substrate protein remaining %” value in test [5] is reported as “B (80%< substrate protein remaining % ≤100%)”. In addition, in test [6], the “IKZF1 substrate protein remaining %” value is listed as “A (0% ≤ substrate protein remaining % ≤80%)”.
Regarding `O=C1CCN(N2C(=O)c3ccc(CN4CCC(c5cccc(Cl)c5Cl)CC4)cc3C2=O)C(=O)N1` [GT-05250, 5-((4-(2,3-dichlorophenyl)piperidin-1-yl)methyl)-2-(2,4-dioxotetrahydropyrimidin-1(2H)-yl)isoindoline-1,3-dione], in test [1], the “GSPT1 substrate protein remaining %” value was “B (80%< substrate protein remaining % ≤100%)”. The “CK1α substrate protein remaining %” value in test [2] is recorded as “B (80%< substrate protein remaining % ≤100%)”. Also, in test [3], the “WEE1 substrate protein remaining %” value is given as “B (80%< substrate protein remaining % ≤100%)”. The “IKZF2 substrate protein remaining %” value in test [4] is given as “A (0% ≤ substrate protein remaining % ≤80%)”. Moreover, the “IKZF3 substrate protein remaining %” value in test [5] was “B (80%< substrate protein remaining % ≤100%)”. In test [6], the “IKZF1 substrate protein remaining %” value was “B (80%< substrate protein remaining % ≤100%)”.
On to `O=C1CCN(N2C(=O)c3ccc(CN4C5CC4CN(c4cccc(Cl)c4Cl)C5)cc3C2=O)C(=O)N1` [GT-05251, 5-((3-(2,3-dichlorophenyl)-3,6-diazabicyclo[3.1.1]heptan-6-yl)methyl)-2-(2,4-dioxotetrahydropyrimidin-1(2H)-yl)isoindoline-1,3-dione], for which the “GSPT1 substrate protein remaining %” value in test [1] is reported as “B (80%< substrate protein remaining % ≤100%)”. The “CK1α substrate protein remaining %” value in test [2] is recorded as “B (80%< substrate protein remaining % ≤100%)”. Besides, the “WEE1 substrate protein remaining %” value in test [3] was “B (80%< substrate protein remaining % ≤100%)”. For the same compound, the “IKZF2 substrate protein remaining %” value in test [4] is given as “A (0% ≤ substrate protein remaining % ≤80%)”. In test [5], the “IKZF3 substrate protein remaining %” value was “B (80%< substrate protein remaining % ≤100%)”. Moreover, in test [6], the “IKZF1 substrate protein remaining %” value is “B (80%< substrate protein remaining % ≤100%)”.
With `O=C1CCN(N2C(=O)c3ccc(CN4CCn5c(nnc5C(F)(F)F)C4)cc3C2=O)C(=O)N1` [GT-05253, 2-(2,4-dioxotetrahydropyrimidin-1(2H)-yl)-5-((3-(trifluoromethyl)-5,6-dihydro-[1,2,4]triazolo[4,3-a]pyrazin-7 (8H)-yl)methyl)isoindoline-1,3-dione], in test [1], the “GSPT1 substrate protein remaining %” value was “A (0% ≤ substrate protein remaining % ≤80%)”. Also, the “CK1α substrate protein remaining %” value in test [2] was “B (80%< substrate protein remaining % ≤100%)”. Also, in test [3], the “WEE1 substrate protein remaining %” value is reported as “B (80%< substrate protein remaining % ≤100%)”. Further, the “IKZF2 substrate protein remaining %” value in test [4] was “B (80%< substrate protein remaining % ≤100%)”. Also, the “IKZF3 substrate protein remaining %” value in test [5] was “B (80%< substrate protein remaining % ≤100%)”. In addition, the “IKZF1 substrate protein remaining %” value in test [6] is listed as “B (80%< substrate protein remaining % ≤100%)”.
Turning to `O=C1CCN(N2C(=O)c3ccc(CN4CCc5sccc5C4)cc3C2=O)C(=O)N1` [GT-05254, 5-((6,7-dihydrothieno[3,2-c]pyridin-5 (4H)-yl)methyl)-2-(2,4-dioxotetrahydropyrimidin-1(2H)-yl)isoindoline-1,3-dione], in test [1], the “GSPT1 substrate protein remaining %” value is “A (0% ≤ substrate protein remaining % ≤80%)”. Moreover, the “CK1α substrate protein remaining %” value in test [2] was “B (80%< substrate protein remaining % ≤100%)”. Moreover, in test [3], the “WEE1 substrate protein remaining %” value is “B (80%< substrate protein remaining % ≤100%)”. Besides, the “IKZF2 substrate protein remaining %” value in test [4] is on record as “B (80%< substrate protein remaining % ≤100%)”. The “IKZF3 substrate protein remaining %” value in test [5] was “B (80%< substrate protein remaining % ≤100%)”. In addition, in test [6], the “IKZF1 substrate protein remaining %” value was “B (80%< substrate protein remaining % ≤100%)”.
For `O=C1CCN(N2C(=O)c3ccc(CN4CCC(c5c[nH]c6cc(F)ccc56)CC4)cc3C2=O)C(=O)N1` [GT-05259, 2-(2,4-dioxotetrahydropyrimidin-1(2H)-yl)-5-((4-(6-fluoro-1H-indol-3-yl)piperidin-1-yl)methyl)isoindoline-1,3-dione], in test [1], the “GSPT1 substrate protein remaining %” value is reported as “A (0% ≤ substrate protein remaining % ≤80%)”. Moreover, in test [2], the “CK1α substrate protein remaining %” value is given as “B (80%< substrate protein remaining % ≤100%)”. The “WEE1 substrate protein remaining %” value in test [3] was “B (80%< substrate protein remaining % ≤100%)”. The “IKZF2 substrate protein remaining %” value in test [4] was “A (0% ≤ substrate protein remaining % ≤80%)”. Also, in test [5], the “IKZF3 substrate protein remaining %” value is “B (80%< substrate protein remaining % ≤100%)”. Moreover, the “IKZF1 substrate protein remaining %” value in test [6] was “A (0% ≤ substrate protein remaining % ≤80%)”.
For the compound `O=C1CCN(N2C(=O)c3ccc(CN4CCC(N5CCc6cc(F)ccc65)CC4)cc3C2=O)C(=O)N1` [GT-05260, 2-(2,4-dioxotetrahydropyrimidin-1(2H)-yl)-5-((4-(5-fluoroindolin-1-yl)piperidin-1-yl)methyl)isoindoline-1,3-dione], the “GSPT1 substrate protein remaining %” value in test [1] is “B (80%< substrate protein remaining % ≤100%)”. In addition, the “CK1α substrate protein remaining %” value in test [2] was “B (80%< substrate protein remaining % ≤100%)”. Moreover, the “WEE1 substrate protein remaining %” value in test [3] is recorded as “A (0% ≤ substrate protein remaining % ≤80%)”. For the same compound, in test [4], the “IKZF2 substrate protein remaining %” value was “A (0% ≤ substrate protein remaining % ≤80%)”. Further, the “IKZF3 substrate protein remaining %” value in test [5] is recorded as “B (80%< substrate protein remaining % ≤100%)”. Further, the “IKZF1 substrate protein remaining %” value in test [6] is on record as “A (0% ≤ substrate protein remaining % ≤80%)”.
In the case of `O=C1CCN(N2C(=O)c3ccc(CN4CC=C(c5ccnc6cc(F)ccc56)CC4)cc3C2=O)C(=O)N1` [GT-05261, 2-(2,4-dioxotetrahydropyrimidin-1(2H)-yl)-5-((4-(7-fluoroquinolin-4-yl)-3,6-dihydropyridin-1(2H)-yl)methyl)isoindoline-1,3-dione], the “GSPT1 substrate protein remaining %” value in test [1] was “B (80%< substrate protein remaining % ≤100%)”. Further, the “CK1α substrate protein remaining %” value in test [2] is on record as “B (80%< substrate protein remaining % ≤100%)”. For the same compound, in test [3], the “WEE1 substrate protein remaining %” value is “B (80%< substrate protein remaining % ≤100%)”. The “IKZF2 substrate protein remaining %” value in test [4] is reported as “A (0% ≤ substrate protein remaining % ≤80%)”. The “IKZF3 substrate protein remaining %” value in test [5] is recorded as “B (80%< substrate protein remaining % ≤100%)”. In test [6], the “IKZF1 substrate protein remaining %” value is given as “B (80%< substrate protein remaining % ≤100%)”.
As to `O=C1CCN(N2C(=O)c3ccc(CN4CCN(C(c5ccccc5)c5ccccc5)CC4)cc3C2=O)C(=O)N1` [GT-05267, 5-((4-benzhydrylpiperazin-1-yl)methyl)-2-(2,4-dioxotetrahydropyrimidin-1(2H)-yl)isoindoline-1,3-dione], the “GSPT1 substrate protein remaining %” value in test [1] is given as “A (0% ≤ substrate protein remaining % ≤80%)”. In addition, the “CK1α substrate protein remaining %” value in test [2] is recorded as “A (0% ≤ substrate protein remaining % ≤80%)”. The “WEE1 substrate protein remaining %” value in test [3] is on record as “B (80%< substrate protein remaining % ≤100%)”. Also, the “IKZF2 substrate protein remaining %” value in test [4] is given as “B (80%< substrate protein remaining % ≤100%)”. The “IKZF3 substrate protein remaining %” value in test [5] is on record as “A (0% ≤ substrate protein remaining % ≤80%)”. Besides, in test [6], the “IKZF1 substrate protein remaining %” value is reported as “B (80%< substrate protein remaining % ≤100%)”.
With `O=C1CCN(N2C(=O)c3ccc(CN4CCN(C(c5ccc(F)cc5)c5ccc(F)cc5)CC4)cc3C2=O)C(=O)N1` [GT-05268, 5-((4-(bis(4-fluorophenyl)methyl)piperazin-1-yl)methyl)-2-(2,4-dioxotetrahydropyrimidin-1(2H)-yl)isoindoline-1,3-dione], the “GSPT1 substrate protein remaining %” value in test [1] was “A (0% ≤ substrate protein remaining % ≤80%)”. Also, the “CK1α substrate protein remaining %” value in test [2] is listed as “A (0% ≤ substrate protein remaining % ≤80%)”. For the same compound, the “WEE1 substrate protein remaining %” value in test [3] was “B (80%< substrate protein remaining % ≤100%)”. Besides, in test [4], the “IKZF2 substrate protein remaining %” value is “B (80%< substrate protein remaining % ≤100%)”. For the same compound, the “IKZF3 substrate protein remaining %” value in test [5] is given as “A (0% ≤ substrate protein remaining % ≤80%)”. In test [6], the “IKZF1 substrate protein remaining %” value was “B (80%< substrate protein remaining % ≤100%)”.
